Experimental data taken from ChEMBL document CHEMBL5257025, “Artemisinin-Derived Dimers: Potent Antimalarial and Anticancer Agents” (J Med Chem, 2016).

How the values were obtained:
[1] = test system: A498; assay: Antiproliferative activity against human A498 cells assessed as reduction in cell viability; assay type: functional, cell-based
[2] = test system: CAKI-1; assay: Antiproliferative activity against human CAKI-1 cells assessed as reduction in cell viability after 48 hrs by SRB assay; assay type: functional, cell-based; settings: CAKI-1, 48 h
[3] = test system: PC-3; assay: Antiproliferative activity against human PC-3 cells assessed as cell growth inhibition; assay type: functional, cell-based
[4] = test system: DU-145; assay: Antiproliferative activity against human DU-145 cells assessed as reduction in cell viability; assay type: functional, cell-based
[5] = test system: SK-OV-3; assay: Antiproliferative activity against human SK-OV-3 cells assessed as reduction in cell viability incubated for 48 hrs by MTT assay; assay type: functional, cell-based; settings: SK-OV-3, 48 h
[6] = test system: K562; assay: Antiproliferative activity against human K562 cells assessed as reduction in cell viability by MTT assay; assay type: functional, cell-based
[7] = test system: OVCAR-3; assay: Antiproliferative activity against human OVCAR-3 cells assessed as reduction in cell viability; assay type: functional, cell-based
[8] = test system: LOX IMVI; assay: Antiproliferative activity against human LOX IMVI cells assessed as cell growth inhibition; assay type: functional, cell-based
[9] = test system: M14; assay: Antiproliferative activity against human M14 cells assessed as growth inhibition incubated for 72 hrs by luminescence assay; assay type: functional, cell-based; settings: M14, 72 h
[10] = test system: HL-60; assay: Antiproliferative activity against human HL-60 cells assessed as reduction in cell viability incubated for 48 hrs by MTT assay; assay type: functional, cell-based; settings: HL-60, 48 h
[11] = test system: MCF7; assay: Antiproliferative activity against human MCF7 cells assessed as reduction in cell viability measured after 48 hrs by SRB assay; assay type: functional, cell-based; settings: MCF7, 48 h
[12] = test system: T47D; assay: Antiproliferative activity against human T47D cells assessed as inhibition of cell growth; assay type: functional, cell-based
[13] = test system: Ehrlich; assay: Cytotoxicity against mouse Ehrlich cells assessed as growth inhibition at 100 ug/ml; assay type: functional, cell-based
[14] = test system: BeWo; assay: Antiproliferative activity against human BeWo cells assessed as reduction in cell viability after 72 hrs by MTT assay; assay type: functional, cell-based
[15] = Antiproliferative activity against human YD-10B cells assessed as cell growth inhibition measured after 72 hrs by MTT assay; assay type: functional, cell-based
[16] = test system: P388; assay: Antiproliferative activity against mouse P388 cells assessed as cell growth inhibition incubated for 72 hrs by MTT assay; assay type: functional, cell-based; settings: P388, 72 h
[17] = test system: HT-29; assay: cells; settings: Homo sapiens, HT-29, 72 h
[18] = test system: C2D cell line; assay: Cytotoxicity against mouse C2D cell line assessed as inhibition of cell growth measured after 72 hrs by MTT assay; assay type: functional, cell-based
[19] = Antiproliferative activity against human 1205Lu cells assessed as reduction in cell growth; assay type: functional, cell-based
[20] = test system: HCT-116; assay: Antiproliferative activity against human HCT-116 cells assessed as growth after 48 hrs by MTT assay; assay type: functional, cell-based; settings: HCT-116, 48 h
[21] = Cytotoxicity against human HFF cells assessed as cell growth inhibition measured after 48 hrs by MTT assay; assay type: toxicity, cell-based
[22] = test system: HeLa; assay: Antiproliferative activity against human Hela cells assessed as cell growth inhibition measured after 48 hrs by MTT assay; assay type: functional, cell-based
[23] = test system: C2G cell line; assay: Cytotoxicity against mouse C2G cells assessed as inhibition of cell growth measured after 72 hrs by MTT assay; assay type: functional, cell-based
[24] = test system: Plasmodium falciparum; assay: Antimalarial activity against Plasmodium falciparum NF54 assessed as reduction in cell growth; assay type: functional, organism-based
[25] = Cytotoxicity against rat MTLn3 cells assessed as cell growth inhibition; assay type: toxicity, cell-based
[26] = test system: TRAMP-C2H; assay: Cytotoxicity against mouse TRAMP-C2H cells assessed as inhibition of cell growth measured after 72 hs by MTT assay; assay type: functional, cell-based
[27] = test system: Plasmodium berghei; assay: In vivo antimalarial activity against Plasmodium berghei infected mouse model assessed as survival time at 8 mg/kg, po in presence of Mefloquine hydrochloride

Row | Compound | IC50 [1] | IC50 [2] | IC50 [3] | IC50 [4] | IC50 [5] | IC50 [6] | IC50 [7] | IC50 [8] | IC50 [9] | IC50 [10] | IC50 [11] | IC50 [12] | also measured
1 | C[C@@H]1CC[C@H]2[C@@H](C)C(OCC(COC3O[C@H]4O[C@@]5(C)CC[C@H]6[C@H](C)CC[C@@H]([C@H]3C)[C@@]46OO5)OC(=O)CCC(=O)O)O[C@H]3O[C@@]4(C)CC[C@@H]1[C@]32OO4 (stereo not given in full) | 20 µM | 30 µM | 0.04 µM | 20 µM | 25 µM | 0.2 µM | 0.25 µM | 0.08 µM | 30 µM | 0.06 µM | 0.2 µM | 0.075 µM | –
2 | C[C@H]1[C@H](O[C@H]2O[C@H]3O[C@@]4(C)CC[C@H]5[C@H](C)CC[C@@H]([C@H]2C)[C@@]35OO4)O[C@H]2O[C@@]3(C)CC[C@H]4[C@H](C)CC[C@@H]1[C@@]24OO3 | – | – | – | – | – | – | – | – | – | – | – | – | IC50 [13]: 3.6 µM
3 | C[C@@H]1CC[C@H]2[C@@H](C)C(OCC(COC3O[C@H]4O[C@@]5(C)CC[C@H]6[C@H](C)CC[C@@H]([C@H]3C)[C@@]46OO5)=NO)O[C@H]3O[C@@]4(C)CC[C@@H]1[C@]32OO4 (stereo not given in full) | 6.5 µM | 13 µM | 0.02 µM | 15 µM | 15 µM | 0.15 µM | 0.2 µM | 0.055 µM | 15 µM | 0.04 µM | 0.06 µM | 0.03 µM | –
4 | C[C@@H]1CC[C@H]2[C@@H](C)C(CCSCCC3O[C@@H]4O[C@]5(C)CC[C@@H]6[C@@H](C)CC[C@H]([C@@H]3C)[C@]46OO5)O[C@H]3O[C@@]4(C)CC[C@@H]1[C@]32OO4 (stereo not given in full) | – | – | – | – | – | – | – | – | – | – | 0.03 µM | – | IC50 [14]: 22.8 µM; IC50 [15]: 9.3 µM; IC50 [16]: 0.64 µM; IC50 [17]: 0.39 µM
5 | C[C@@H]1CC[C@H]2[C@@H](C)C(CC(CO)CC3O[C@H]4O[C@@]5(C)CC[C@H]6[C@H](C)CC[C@@H]([C@H]3C)[C@@]46OO5)O[C@H]3O[C@@]4(C)CC[C@@H]1[C@]32OO4 (stereo not given in full) | – | – | – | – | – | – | – | – | – | – | – | – | IC50 [18]: 0.0185 µM; IC50 [19]: 4.9 µM; IC50 [20]: 0.1 µM; IC50 at 48 h [21]: 48.1 µM; IC50 [22]: 1.06 µM; IC50 [23]: 0.0154 µM; IC50 [24]: 0.00087 µM; IC50 [25]: 0.043 µM; IC50 [26]: 0.0092 µM
6 | C[C@@H]1CC[C@H]2[C@@H](C)C(CC(CC3O[C@@H]4O[C@]5(C)CC[C@@H]6[C@@H](C)CC[C@H]([C@@H]3C)[C@]46OO5)C[Si](C)(C)C)O[C@H]3O[C@@]4(C)CC[C@@H]1[C@]32OO4 (stereo not given in full) | – | – | – | – | – | – | – | – | – | – | – | – | survival time [27]: > 57 days
